Assay results from patent US20230174584A1, “Antibiotic Compounds” (priority 2019, published 2023).
Converted amounts (≈) assume the structure as drawn.

Assays:
Test in all cases: MIC assay, VISA and VRSA panel
Type in all cases: cell-based, Staphylococcus aureus
VRS9 = tested on: VRS9
Description: (§1) The antibacterial activity of the compounds was tested against a panel of bacteria, including Gram-positive bacteria (S. aureus ATCC29213, S. aureus USA300, S. aureus LIM-2, NR-45881, S. aureus HIP13419, NR-46413, E. faecium E155, E. faecium E7314, E. faecium E980, E. faecalis E1246, E. faecalis E7406 and S. pneumonia 153). The antibacterial activity of the compounds was further tested against S. aureus NY-155, NR-46236, S. aureus HIP12864, NR-46074, S. aureus 880 (BR-VRSA), NR-49120, E. faecalis E1246, E. faecalis E7604, as well as some Gram-negative bacteria (Escherichia coli and Klebsiella pneumoniae). Minimum inhibitory concentrations (MICs) in μg/mL were performed according to the CLSI guidelines. From glycerol stocks, bacterial strains were cultured on blood agar plates and incubated at 37° C. for 18 h. A single colony was transferred to tryptic soy broth (TSB) with 0.002% polysorbate 80 (p80). For the Enterococcus, VISA and VRSA strains, the cultures were grown at 37° C. until the optical density of the suspension reached a level equivalent to the 0.5 McFarland standard. The bacterial suspensions were diluted in TSB with 0.002% p80 to reach a bacterial cell density of 10^6 CFU/mL. In case of the other (vancomycin-sensitive) S. aureus strains, the direct colony suspension method was used. For these strains, after transfer of the colonies to TSB with 0.002% p80, they were immediately diluted to 10^6 CFU/mL, instead of incubated prior to this dilution. In the case of S. pneumonia, direct colony suspension was used by immediately suspending multiple colonies from fresh blood agar plates in TSB+0.002% p80 to an OD600 of 0.5 and subsequent dilution to 10^6 CFU mL^−1 in TSB+0.002% p80+5% lysed horse blood. Antibiotic dilutions for this strains were also made in TSB+0.002% p80+5% lysed horse blood. Both agar and microplates containing S. pneumonia were incubated at 37° C. with 5% CO2 for 24 h with constant shaking (600 rpm). […] The cultures were grown to exponential phase (OD600=0.5) at 37° C. […] In polypropylene 96-well microtiter plates, test compounds were added in biological triplicates and serial diluted 2-fold by transfer and mixing from one well to the next to achieve a final volume of 50 μL per well. An equal volume of bacterial suspension (10^6 CFU mL^−1) was added to the wells. The plates were sealed with breathable membranes and incubated at 37° C. for 24 h with constant shaking (600 rpm). In polypropylene microtiter plates, 100 μL of the test compounds was added to the first row in biological triplicates, and 50 μL of media was added to the other wells. The compounds were subjected to serial dilution by transfer and mixing of 50 μL from one well to the next. Subsequently, 50 μL of bacterial suspension (10^6 CFU/mL) was added to the wells. The plates were sealed with breathable membranes and incubated at 37° C. for 24 h with constant shaking (600 rpm). Positive growth control consisted of wells with bacterial suspension and without antibiotic. Negative growth control consisted of solely media without bacterial suspension or antibiotic. The MICs were determined from the median of a minimum of triplicates.

VRS7 = tested on: VRS7
Description: as §1

VRS2 = tested on: VRS2
Description: as §1

NRS52 = tested on: NRS52
Description: as §1

NRS51 = tested on: NRS51
Description: as §1

NRS19 = tested on: NRS19
Description: as §1

NRS18 = tested on: NRS18
Description: as §1

NRS17 = tested on: NRS17
Description: as §1

NRS63SH = tested on: NRS63SH
Description: as §1

VRSA3b = tested on: VRSA3b
Description: as §1

VRS8 = tested on: VRS8
Description: as §1

VRS4 = tested on: VRS4
Description: as §1

VRS5 = tested on: VRS5
Description: as §1

VRS11a = tested on: VRS11a
Description: as §1

VRS3a = tested on: VRS3a
Description: as §1

Structure (SMILES): CN[C@H](CC(C)C)C(=O)N[C@H]1C(=O)N[C@@H](CC(N)=O)C(=O)N[C@H]2C(=O)N[C@H]3C(=O)N[C@H](C(=O)N[C@H](C(=O)O)c4cc(O)cc(O)c4-c4cc3ccc4O)[C@H](O[C@H]3C[C@](C)(N)[C@@H](O)[C@H](C)O3)c3ccc(c(Cl)c3)Oc3cc2cc(c3O[C@@H]2O[C@H](CO)[C@@H](O)[C@H](O)[C@H]2O[C@H]2C[C@](C)(NCc3ccc(-c4ccc(Cl)cc4)cc3)[C@@H](O)[C@H](C)O2)Oc2ccc(cc2Cl)[C@H]1O [Oritavancin]
- MIC (VRS9; Staphylococcus aureus): 2 µg/mL (≈ 1.12 µM)
- MIC (VRS7; Staphylococcus aureus): 0.5 µg/mL (≈ 0.279 µM)
- MIC (VRS2; Staphylococcus aureus): 0.25 µg/mL (≈ 0.139 µM)
- MIC (NRS52; Staphylococcus aureus, NRS52): 0.5 µg/mL (≈ 0.279 µM)
- MIC (NRS51; Staphylococcus aureus, NRS51): 0.5 µg/mL (≈ 0.279 µM)
- MIC (NRS19; Staphylococcus aureus, NRS19): 1 µg/mL (≈ 0.558 µM)
- MIC (NRS18; Staphylococcus aureus, NRS18): 1 µg/mL (≈ 0.558 µM)
- MIC (NRS17; Staphylococcus aureus, NRS17): 4 µg/mL (≈ 2.23 µM)
- MIC (NRS63SH; Staphylococcus aureus): 1 µg/mL (≈ 0.558 µM)
- MIC (VRSA3b; Staphylococcus aureus): 0.25 µg/mL (≈ 0.139 µM)
- MIC (VRS8; Staphylococcus aureus): 1 µg/mL (≈ 0.558 µM)
- MIC (VRS4; Staphylococcus aureus): 1 µg/mL (≈ 0.558 µM)
- MIC (VRS5; Staphylococcus aureus): 0.5 µg/mL (≈ 0.279 µM)
- MIC (VRS11a; Staphylococcus aureus): 1 µg/mL (≈ 0.558 µM)
- MIC (VRS3a; Staphylococcus aureus): 0.5 µg/mL (≈ 0.279 µM)

Structure (SMILES): CCCCCCCCCCNCCN[C@@]1(C)C[C@H](O[C@H]2[C@H](Oc3c4cc5cc3Oc3ccc(cc3Cl)[C@@H](O)[C@@H](NC(=O)[C@@H](CC(C)C)NC)C(=O)N[C@@H](CC(N)=O)C(=O)N[C@H]5C(=O)N[C@H]3C(=O)N[C@H](C(=O)N[C@H](C(=O)O)c5cc(O)c(CNCP(=O)(O)O)c(O)c5-c5cc3ccc5O)[C@H](O)c3ccc(c(Cl)c3)O4)O[C@H](CO)[C@@H](O)[C@@H]2O)O[C@@H](C)[C@H]1O [Telavancin, reference compound]
- MIC (VRS9; Staphylococcus aureus): 16 µg/mL (≈ 9.11 µM)
- MIC (VRS7; Staphylococcus aureus): 4 µg/mL (≈ 2.28 µM)
- MIC (VRS2; Staphylococcus aureus): 2 µg/mL (≈ 1.14 µM)
- MIC (NRS52; Staphylococcus aureus, NRS52): 0.25 µg/mL (≈ 0.142 µM)
- MIC (NRS51; Staphylococcus aureus, NRS51): 0.125 µg/mL (≈ 0.0712 µM)
- MIC (NRS19; Staphylococcus aureus, NRS19): 0.25 µg/mL (≈ 0.142 µM)
- MIC (NRS18; Staphylococcus aureus, NRS18): 0.25 µg/mL (≈ 0.142 µM)
- MIC (NRS17; Staphylococcus aureus, NRS17): 1 µg/mL (≈ 0.57 µM)
- MIC (NRS63SH; Staphylococcus aureus): 8 µg/mL (≈ 4.56 µM)
- MIC (VRSA3b; Staphylococcus aureus): 4 µg/mL (≈ 2.28 µM)
- MIC (VRS8; Staphylococcus aureus): 16 µg/mL (≈ 9.11 µM)
- MIC (VRS4; Staphylococcus aureus): 4 µg/mL (≈ 2.28 µM)
- MIC (VRS5; Staphylococcus aureus): 4 µg/mL (≈ 2.28 µM)
- MIC (VRS11a; Staphylococcus aureus): 8 µg/mL (≈ 4.56 µM)
- MIC (VRS3a; Staphylococcus aureus): 1 µg/mL (≈ 0.57 µM)

Structure (SMILES): CN[C@H](CC(C)C)C(=O)N[C@H]1C(=O)N[C@@H](CC(N)=O)C(=O)N[C@H]2C(=O)N[C@H]3C(=O)N[C@H](C(=O)N[C@H](C(=O)O)c4cc(O)cc(O)c4-c4cc3ccc4O)[C@H](O)c3ccc(c(Cl)c3)Oc3cc2cc(c3O[C@@H]2O[C@H](CO)[C@@H](O)[C@H](O)[C@H]2O[C@H]2C[C@](C)(N)[C@H](O)[C@H](C)O2)Oc2ccc(cc2Cl)[C@H]1O [Vancomycin, reference compound]
- MIC (VRS9; Staphylococcus aureus): > 128 µg/mL
- MIC (VRS7; Staphylococcus aureus): > 128 µg/mL
- MIC (VRS2; Staphylococcus aureus): 32 µg/mL (≈ 22.1 µM)
- MIC (NRS52; Staphylococcus aureus, NRS52): 4 µg/mL (≈ 2.76 µM)
- MIC (NRS51; Staphylococcus aureus, NRS51): 4 µg/mL (≈ 2.76 µM)
- MIC (NRS19; Staphylococcus aureus, NRS19): 4 µg/mL (≈ 2.76 µM)
- MIC (NRS18; Staphylococcus aureus, NRS18): 8 µg/mL (≈ 5.52 µM)
- MIC (NRS17; Staphylococcus aureus, NRS17): 8 µg/mL (≈ 5.52 µM)
- MIC (NRS63SH; Staphylococcus aureus): > 128 µg/mL
- MIC (VRSA3b; Staphylococcus aureus): > 128 µg/mL
- MIC (VRS8; Staphylococcus aureus): > 128 µg/mL
- MIC (VRS4; Staphylococcus aureus): > 128 µg/mL
- MIC (VRS5; Staphylococcus aureus): > 128 µg/mL
- MIC (VRS11a; Staphylococcus aureus): > 128 µg/mL
- MIC (VRS3a; Staphylococcus aureus): 64 µg/mL (≈ 44.2 µM)

Structure (SMILES): CCCCCCN(CCCCCC)C(N)=Nc1ccc(CN[C@@]2(C)C[C@H](O[C@H]3[C@H](Oc4c5cc6cc4Oc4ccc(cc4Cl)[C@@H](O)[C@@H](NC(=O)[C@@H](CC(C)C)NC)C(=O)N[C@@H](CC(N)=O)C(=O)N[C@H]6C(=O)N[C@H]4C(=O)N[C@H](C(=O)N[C@H](C(=O)O)c6cc(O)cc(O)c6-c6cc4ccc6O)[C@H](O)c4ccc(c(Cl)c4)O5)O[C@H](CO)[C@@H](O)[C@@H]3O)O[C@@H](C)[C@H]2O)cc1 [Compound 12]
- MIC (VRS9; strain VRS9): 4 µg/mL (≈ 2.27 µM)
- MIC (VRS7; strain VRS7): 2 µg/mL (≈ 1.13 µM)
- MIC (VRS2; strain VRS2): <0.016 µg/mL
- MIC (NRS52; strain NRS52): 0.031 µg/mL (≈ 0.0176 µM)
- MIC (NRS51; strain NRS51): 0.125 µg/mL (≈ 0.0708 µM)
- MIC (NRS19; strain NRS19): 0.25 µg/mL (≈ 0.142 µM)
- MIC (NRS18; strain NRS18): 0.25 µg/mL (≈ 0.142 µM)
- MIC (NRS17; strain NRS17): 0.5 µg/mL (≈ 0.283 µM)
- MIC (NRS63SH; strain NRS63SH): 2 µg/mL (≈ 1.13 µM)
- MIC (VRSA3b; strain VRSA3b): 0.25 µg/mL (≈ 0.142 µM)
- MIC (VRS8; strain VRS8): 4 µg/mL (≈ 2.27 µM)
- MIC (VRS4; strain VRS4): 2 µg/mL (≈ 1.13 µM)
- MIC (VRS5; strain VRS5): 1 µg/mL (≈ 0.567 µM)
- MIC (VRS11a; strain VRS11a): 4 µg/mL (≈ 2.27 µM)
- MIC (VRS3a; strain VRS3a): <0.016 µg/mL
